Earlier results as cited in patent US20120058151A1, “NANOPARTICULATE COMPOSITIONS OF POORLY SOLUBLE COMPOUNDS” (CAPSULUTION PHARMA AG, priority 2008, published 2012).

CCOc1nc2cccc(C(=O)OC(C)OC(=O)OC3CCCCC3)c2n1Cc1ccc(-c2ccccc2-c2nnn[nH]2)cc1 (stereo not shown) [candesartan cilexetil]
solubility in water: practically insoluble in water
